Reference: ChEMBL document CHEMBL3085719, “Structure-based design and synthesis of potent benzothiazole inhibitors of interleukin-2 inducible T cell kinase (ITK)” (Bioorg Med Chem Lett, 2013)
≈ marks a conversion by molar mass, not a printed value.

Columns and labels:
[1] = Lipophilicity, log D of the compound at pH 7.4; settings: buffer
[2] = Aqueous solubility of the compound at pH 7.4; format: physicochemical; settings: buffer
[3] = biological target: T1, Tyrosine-protein kinase ITK/TSK (Homo sapiens, UniProt Q08881); assay: Inhibition of ITK in human Jurkat cells assessed as inhibition of PLC-gamma1 phosphorylation by immuno-detection assay; format: cell-based
T1 sequence (Q08881 whole entry): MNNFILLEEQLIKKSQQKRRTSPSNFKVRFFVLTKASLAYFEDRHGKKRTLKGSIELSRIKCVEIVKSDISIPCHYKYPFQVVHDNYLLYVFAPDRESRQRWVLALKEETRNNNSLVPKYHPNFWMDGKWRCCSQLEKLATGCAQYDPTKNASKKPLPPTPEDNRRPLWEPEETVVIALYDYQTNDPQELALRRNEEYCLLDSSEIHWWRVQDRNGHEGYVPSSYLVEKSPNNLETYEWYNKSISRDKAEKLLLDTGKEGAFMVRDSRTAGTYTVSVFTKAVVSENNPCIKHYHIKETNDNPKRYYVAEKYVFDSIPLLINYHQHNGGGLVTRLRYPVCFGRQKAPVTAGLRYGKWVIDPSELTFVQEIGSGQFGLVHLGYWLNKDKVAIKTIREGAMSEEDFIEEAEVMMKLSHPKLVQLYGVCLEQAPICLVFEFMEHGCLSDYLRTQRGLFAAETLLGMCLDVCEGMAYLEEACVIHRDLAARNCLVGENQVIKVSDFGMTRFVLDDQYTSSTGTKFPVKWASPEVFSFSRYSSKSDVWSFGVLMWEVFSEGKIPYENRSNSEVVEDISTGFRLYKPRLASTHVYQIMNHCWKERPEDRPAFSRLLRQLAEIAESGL

[4] = biological target: Tyrosine-protein kinase Lck (Homo sapiens, UniProt P06239); assay: Inhibition of LCK (unknown origin)
[5] = biological target: T1, Tyrosine-protein kinase ITK/TSK; assay: Inhibition of full length GST-tagged ITK (unknown origin) using Ac-EFPIYDFLPAKKK-NH2 as substrate after 35 mins by LC/MS analysis
[6] = biological target: Tyrosine-protein kinase ABL1 (Homo sapiens) (UniProt P00519); assay: Inhibition of ABL (unknown origin) at 1 uM relative to control
[7] = tested on: RAF proto-oncogene serine/threonine-protein kinase (Homo sapiens), P04049 [Y340D,Y341D]; assay: Inhibition of RAF Y340D/Y341D double mutant (unknown origin) at 1 uM relative to control
[8] = biological target: T2, Muscle, skeletal receptor tyrosine-protein kinase (Homo sapiens) (UniProt O15146); assay: Inhibition of MUSK (unknown origin) at 1 uM relative to control
T2 sequence (whole entry): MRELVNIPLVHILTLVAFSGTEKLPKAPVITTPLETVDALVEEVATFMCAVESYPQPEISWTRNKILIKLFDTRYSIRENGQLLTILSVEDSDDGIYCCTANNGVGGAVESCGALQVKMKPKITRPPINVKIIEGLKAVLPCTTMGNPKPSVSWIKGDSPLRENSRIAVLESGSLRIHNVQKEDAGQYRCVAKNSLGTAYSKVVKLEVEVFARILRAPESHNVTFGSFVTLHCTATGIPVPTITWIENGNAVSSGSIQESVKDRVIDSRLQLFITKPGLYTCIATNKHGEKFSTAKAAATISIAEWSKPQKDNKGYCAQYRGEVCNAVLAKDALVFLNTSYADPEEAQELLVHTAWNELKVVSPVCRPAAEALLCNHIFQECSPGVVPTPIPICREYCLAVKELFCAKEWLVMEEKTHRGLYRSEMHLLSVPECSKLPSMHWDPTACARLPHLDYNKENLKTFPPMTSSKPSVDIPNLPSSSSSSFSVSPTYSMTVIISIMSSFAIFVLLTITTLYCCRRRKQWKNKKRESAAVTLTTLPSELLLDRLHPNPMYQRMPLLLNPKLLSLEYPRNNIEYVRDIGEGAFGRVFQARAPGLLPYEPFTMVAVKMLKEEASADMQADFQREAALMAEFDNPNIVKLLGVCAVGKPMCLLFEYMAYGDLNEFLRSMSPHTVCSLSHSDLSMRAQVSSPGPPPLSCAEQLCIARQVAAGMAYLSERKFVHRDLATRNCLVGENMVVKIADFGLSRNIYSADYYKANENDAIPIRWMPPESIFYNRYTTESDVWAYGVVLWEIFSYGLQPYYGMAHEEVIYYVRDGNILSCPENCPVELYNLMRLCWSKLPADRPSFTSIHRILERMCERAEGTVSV

[9] = biological target: Cyclin-dependent kinase 2 (Homo sapiens) (UniProt P24941); assay: Inhibition of CDK2 (unknown origin) at 0.1 uM relative to control
[10] = biological target: T3, Tyrosine-protein kinase TXK (Homo sapiens) (UniProt P42681); assay: Inhibition of TXK (unknown origin) at 0.1 uM relative to control
T3 sequence (whole entry): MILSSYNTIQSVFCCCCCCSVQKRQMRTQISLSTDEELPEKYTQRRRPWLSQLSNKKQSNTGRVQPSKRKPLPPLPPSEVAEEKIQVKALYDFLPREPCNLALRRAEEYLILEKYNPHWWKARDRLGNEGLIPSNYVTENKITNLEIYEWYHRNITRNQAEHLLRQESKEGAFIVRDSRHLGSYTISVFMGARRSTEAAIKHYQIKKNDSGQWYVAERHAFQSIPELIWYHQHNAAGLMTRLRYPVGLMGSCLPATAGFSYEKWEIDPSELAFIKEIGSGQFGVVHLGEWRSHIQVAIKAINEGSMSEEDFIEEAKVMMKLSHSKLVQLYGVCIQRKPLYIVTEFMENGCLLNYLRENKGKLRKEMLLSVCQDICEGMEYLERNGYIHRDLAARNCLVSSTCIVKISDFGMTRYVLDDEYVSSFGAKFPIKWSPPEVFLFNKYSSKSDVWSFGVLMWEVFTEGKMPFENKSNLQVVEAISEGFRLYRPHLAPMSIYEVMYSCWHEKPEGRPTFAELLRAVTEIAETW

[11] = AUC (last) in rat at 5 mg/kg, po; format: ADME, organism-based; parameters: time 0 - last, dose 5 mg/kg, route oral; settings: plasma
[12] = biological target: Casein kinase I isoform alpha (Homo sapiens) (UniProt P48729); assay: Inhibition of CK1alpha (unknown origin) at 0.1 uM relative to control
[13] = Volume of distribution at steady state in rat at 1 mg/kg, iv; format: ADME, organism-based; parameters: dose 1 mg/kg, route intravenous; settings: in vivo, read-out: Vdss
[14] = Half life in rat at 1 mg/kg, iv; format: ADME, organism-based; parameters: dose 1 mg/kg, route intravenous; settings: in vivo
[15] = Oral bioavailability in rat at 5 mg/kg; format: ADME, organism-based; settings: in vivo
[16] = Half life in rat at 5 mg/kg, po; format: ADME, organism-based; parameters: dose 5 mg/kg, route oral; settings: in vivo
[17] = biological target: Tyrosine-protein kinase Yes (Homo sapiens) (UniProt P07947); assay: Inhibition of YES (unknown origin) at 0.1 uM relative to control
[18] = biological target: Vascular endothelial growth factor receptor 2 (Homo sapiens) (UniProt P35968); assay: Inhibition of KDR (unknown origin) at 0.1 uM relative to control
[19] = biological target: Serine/threonine-protein kinase PAK 4 (Homo sapiens) (UniProt O96013); assay: Inhibition of PAK4 (unknown origin) at 0.1 uM relative to control
[20] = biological target: Receptor-type tyrosine-protein kinase FLT3 (Homo sapiens) (UniProt P36888); assay: Inhibition of FLT3 (unknown origin) at 0.1 uM relative to control
[21] = biological target: Tyrosine-protein kinase ABL1 (Homo sapiens) (UniProt P00519); assay: Inhibition of ABL (unknown origin) at 0.1 uM relative to control
[22] = AUC (last) in rat at 1 mg/kg, iv; format: ADME, organism-based; parameters: time 0 - last, dose 1 mg/kg, route intravenous; settings: plasma
[23] = Clearance in rat at 1 mg/kg, iv; format: ADME, organism-based; parameters: dose 1 mg/kg, route intravenous; settings: in vivo

Tyrosine-protein kinase Lck, sequence (P06239 whole entry): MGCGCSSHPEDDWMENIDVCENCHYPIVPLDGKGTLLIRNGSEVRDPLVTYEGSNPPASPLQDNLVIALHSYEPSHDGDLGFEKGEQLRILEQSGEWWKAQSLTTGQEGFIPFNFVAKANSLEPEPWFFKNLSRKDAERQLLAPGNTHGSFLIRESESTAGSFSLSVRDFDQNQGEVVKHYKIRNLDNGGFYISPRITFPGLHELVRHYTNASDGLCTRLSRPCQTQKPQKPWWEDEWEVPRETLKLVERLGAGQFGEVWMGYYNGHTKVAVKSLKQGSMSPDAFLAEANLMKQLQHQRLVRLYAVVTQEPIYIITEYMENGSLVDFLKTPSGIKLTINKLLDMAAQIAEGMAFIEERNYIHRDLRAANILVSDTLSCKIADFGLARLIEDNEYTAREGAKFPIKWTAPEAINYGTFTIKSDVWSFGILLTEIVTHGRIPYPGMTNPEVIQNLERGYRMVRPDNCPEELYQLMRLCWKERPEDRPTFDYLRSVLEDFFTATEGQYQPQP
Tyrosine-protein kinase ABL1 (Homo sapiens), sequence (P00519 whole entry): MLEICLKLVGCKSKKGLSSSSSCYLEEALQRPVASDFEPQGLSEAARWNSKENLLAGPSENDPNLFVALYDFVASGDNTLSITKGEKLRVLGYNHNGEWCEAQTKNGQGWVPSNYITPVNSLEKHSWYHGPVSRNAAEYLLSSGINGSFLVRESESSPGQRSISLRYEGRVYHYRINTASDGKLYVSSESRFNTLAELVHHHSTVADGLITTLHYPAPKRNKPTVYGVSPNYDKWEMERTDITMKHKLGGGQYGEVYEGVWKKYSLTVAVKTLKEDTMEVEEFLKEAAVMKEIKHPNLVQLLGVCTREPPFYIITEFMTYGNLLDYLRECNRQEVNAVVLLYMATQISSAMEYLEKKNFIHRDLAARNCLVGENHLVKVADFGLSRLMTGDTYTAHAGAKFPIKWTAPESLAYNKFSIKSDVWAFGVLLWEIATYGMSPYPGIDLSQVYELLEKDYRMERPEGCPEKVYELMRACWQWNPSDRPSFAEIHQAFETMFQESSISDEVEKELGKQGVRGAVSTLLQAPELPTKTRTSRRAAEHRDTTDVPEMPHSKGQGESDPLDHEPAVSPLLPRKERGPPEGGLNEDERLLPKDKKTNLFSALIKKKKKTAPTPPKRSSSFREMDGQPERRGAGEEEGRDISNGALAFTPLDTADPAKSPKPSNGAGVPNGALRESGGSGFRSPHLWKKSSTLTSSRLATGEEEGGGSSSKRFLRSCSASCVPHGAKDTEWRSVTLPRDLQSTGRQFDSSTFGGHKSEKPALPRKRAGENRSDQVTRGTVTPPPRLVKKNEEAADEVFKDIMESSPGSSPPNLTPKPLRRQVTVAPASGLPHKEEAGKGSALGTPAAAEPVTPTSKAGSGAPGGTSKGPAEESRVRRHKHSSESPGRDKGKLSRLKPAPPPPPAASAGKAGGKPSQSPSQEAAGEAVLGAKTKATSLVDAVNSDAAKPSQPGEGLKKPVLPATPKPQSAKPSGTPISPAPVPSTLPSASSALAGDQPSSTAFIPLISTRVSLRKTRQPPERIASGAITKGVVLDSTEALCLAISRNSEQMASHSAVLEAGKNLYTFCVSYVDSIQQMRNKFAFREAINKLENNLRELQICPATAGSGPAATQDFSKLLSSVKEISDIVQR
RAF proto-oncogene serine/threonine-protein kinase (Homo sapiens), P04049 [Y340D,Y341D], sequence (P04049 whole entry Y340D/Y341D): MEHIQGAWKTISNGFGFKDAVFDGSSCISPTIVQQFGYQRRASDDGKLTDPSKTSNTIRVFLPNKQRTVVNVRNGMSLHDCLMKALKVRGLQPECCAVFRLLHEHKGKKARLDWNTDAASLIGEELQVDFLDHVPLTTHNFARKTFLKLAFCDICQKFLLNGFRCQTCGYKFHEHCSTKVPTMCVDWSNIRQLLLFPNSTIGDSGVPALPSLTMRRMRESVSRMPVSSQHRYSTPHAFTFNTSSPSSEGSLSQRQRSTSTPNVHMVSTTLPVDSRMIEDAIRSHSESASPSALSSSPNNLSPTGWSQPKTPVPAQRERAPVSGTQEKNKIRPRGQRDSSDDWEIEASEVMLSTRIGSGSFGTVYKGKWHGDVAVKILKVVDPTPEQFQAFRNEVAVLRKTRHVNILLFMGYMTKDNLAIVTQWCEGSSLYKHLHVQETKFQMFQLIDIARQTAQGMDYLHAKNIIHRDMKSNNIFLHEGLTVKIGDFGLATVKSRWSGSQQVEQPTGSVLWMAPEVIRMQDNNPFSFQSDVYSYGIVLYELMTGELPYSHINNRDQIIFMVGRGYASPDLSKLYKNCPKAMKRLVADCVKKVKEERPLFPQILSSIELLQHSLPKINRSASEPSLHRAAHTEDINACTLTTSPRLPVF
Vascular endothelial growth factor receptor 2 (Homo sapiens), sequence (P35968 whole entry): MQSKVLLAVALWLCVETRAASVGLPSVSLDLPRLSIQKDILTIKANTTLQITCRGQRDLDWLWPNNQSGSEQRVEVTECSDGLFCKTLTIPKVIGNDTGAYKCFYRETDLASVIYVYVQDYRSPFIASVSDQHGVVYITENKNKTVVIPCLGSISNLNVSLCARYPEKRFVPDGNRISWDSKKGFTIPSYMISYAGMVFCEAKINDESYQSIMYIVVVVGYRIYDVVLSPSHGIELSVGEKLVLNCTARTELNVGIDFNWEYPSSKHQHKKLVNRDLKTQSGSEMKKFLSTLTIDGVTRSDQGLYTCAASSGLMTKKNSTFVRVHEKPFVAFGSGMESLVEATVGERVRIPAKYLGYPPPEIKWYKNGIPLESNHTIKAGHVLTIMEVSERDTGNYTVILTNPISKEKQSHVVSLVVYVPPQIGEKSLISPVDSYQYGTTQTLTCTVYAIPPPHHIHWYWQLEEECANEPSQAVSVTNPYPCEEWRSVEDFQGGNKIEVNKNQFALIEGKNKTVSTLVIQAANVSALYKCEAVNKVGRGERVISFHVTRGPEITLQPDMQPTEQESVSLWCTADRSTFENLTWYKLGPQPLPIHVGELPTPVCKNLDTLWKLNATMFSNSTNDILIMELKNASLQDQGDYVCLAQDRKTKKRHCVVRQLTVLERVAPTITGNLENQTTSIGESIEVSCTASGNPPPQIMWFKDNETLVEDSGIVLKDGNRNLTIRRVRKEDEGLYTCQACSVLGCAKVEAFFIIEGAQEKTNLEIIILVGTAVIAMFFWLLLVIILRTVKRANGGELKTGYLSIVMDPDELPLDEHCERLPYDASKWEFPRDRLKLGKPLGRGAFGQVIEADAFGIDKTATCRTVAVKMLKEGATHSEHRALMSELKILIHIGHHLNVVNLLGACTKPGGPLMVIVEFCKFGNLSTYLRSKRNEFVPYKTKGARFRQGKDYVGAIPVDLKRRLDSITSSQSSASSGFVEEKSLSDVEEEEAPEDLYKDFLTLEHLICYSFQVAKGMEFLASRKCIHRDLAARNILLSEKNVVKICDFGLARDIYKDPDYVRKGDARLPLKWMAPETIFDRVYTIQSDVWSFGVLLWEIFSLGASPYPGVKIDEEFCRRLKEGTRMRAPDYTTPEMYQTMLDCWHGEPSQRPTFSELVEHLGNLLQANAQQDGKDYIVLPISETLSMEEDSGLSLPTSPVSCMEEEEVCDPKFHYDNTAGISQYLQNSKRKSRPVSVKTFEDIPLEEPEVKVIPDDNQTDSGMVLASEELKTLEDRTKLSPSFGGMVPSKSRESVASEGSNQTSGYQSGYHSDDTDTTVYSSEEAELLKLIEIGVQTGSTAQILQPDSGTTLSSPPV
Receptor-type tyrosine-protein kinase FLT3 (Homo sapiens), sequence (P36888 whole entry): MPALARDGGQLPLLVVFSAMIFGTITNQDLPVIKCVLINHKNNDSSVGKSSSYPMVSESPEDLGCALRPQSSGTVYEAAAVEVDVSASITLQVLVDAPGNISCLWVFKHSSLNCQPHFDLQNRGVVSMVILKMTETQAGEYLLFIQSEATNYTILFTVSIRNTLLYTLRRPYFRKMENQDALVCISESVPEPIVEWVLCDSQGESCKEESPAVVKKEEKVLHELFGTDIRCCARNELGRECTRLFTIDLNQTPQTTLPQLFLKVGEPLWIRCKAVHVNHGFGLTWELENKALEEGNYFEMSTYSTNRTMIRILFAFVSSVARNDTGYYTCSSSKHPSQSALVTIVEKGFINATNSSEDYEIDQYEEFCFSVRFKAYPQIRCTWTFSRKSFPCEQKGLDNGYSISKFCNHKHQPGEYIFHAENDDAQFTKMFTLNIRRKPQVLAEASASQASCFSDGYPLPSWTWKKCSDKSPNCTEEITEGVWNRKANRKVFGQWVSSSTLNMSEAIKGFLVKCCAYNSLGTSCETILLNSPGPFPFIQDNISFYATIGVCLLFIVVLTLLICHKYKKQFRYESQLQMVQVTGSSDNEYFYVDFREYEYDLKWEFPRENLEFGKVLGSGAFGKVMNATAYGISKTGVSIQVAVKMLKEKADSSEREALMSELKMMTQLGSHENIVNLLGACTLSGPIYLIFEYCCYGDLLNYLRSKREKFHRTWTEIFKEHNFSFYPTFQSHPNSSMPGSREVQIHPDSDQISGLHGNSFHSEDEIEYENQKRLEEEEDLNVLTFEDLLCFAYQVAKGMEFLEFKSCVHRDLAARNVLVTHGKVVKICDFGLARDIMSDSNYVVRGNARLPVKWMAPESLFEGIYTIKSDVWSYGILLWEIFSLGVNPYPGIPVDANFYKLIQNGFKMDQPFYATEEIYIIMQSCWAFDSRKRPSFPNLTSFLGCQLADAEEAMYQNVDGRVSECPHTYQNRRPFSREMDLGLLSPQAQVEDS
Casein kinase I isoform alpha (Homo sapiens), sequence (P48729 2-337 limits assumed): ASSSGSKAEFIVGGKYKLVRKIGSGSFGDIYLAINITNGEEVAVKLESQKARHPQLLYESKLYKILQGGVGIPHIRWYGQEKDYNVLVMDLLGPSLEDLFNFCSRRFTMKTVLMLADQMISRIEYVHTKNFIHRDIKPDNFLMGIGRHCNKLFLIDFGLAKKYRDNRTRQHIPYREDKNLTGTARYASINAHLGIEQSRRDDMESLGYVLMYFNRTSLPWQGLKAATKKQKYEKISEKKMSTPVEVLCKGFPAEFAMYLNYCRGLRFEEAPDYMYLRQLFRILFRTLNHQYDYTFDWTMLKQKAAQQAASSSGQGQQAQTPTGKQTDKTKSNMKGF

| Compound | logD [1] | solubility [2] | IC50 [3] | Ki [5] | also measured |
| --- | --- | --- | --- | --- | --- |
| CN(C)Cc1cccc([C@H]2C[C@@H]2C(=O)Nc2nc3ccc(-c4cn[nH]c4)cc3s2)c1 (racemic) | 2.8 | 11 µM (≈ 4.59 µg/mL) |  |  |  |
| CN(C)Cc1ccc(C2CC2C(=O)Nc2nc3ccc(-c4cn[nH]c4)cc3s2)cc1 (racemic) | 3 | < 1 µM | 0.089 µM | 0.0006 µM | Ki [4]: 0.046 µM |
| CCN(CC)Cc1cc([C@H]2C[C@@H]2C(=O)Nc2nc3ccc(-c4cn[nH]c4)cc3s2)ccc1OC | 2.6 | 180 µM (≈ 85.6 µg/mL) |  |  |  |
| COc1ccc(C2CC2C(=O)Nc2nc3ccc(-c4cn[nH]c4)cc3s2)cc1 (racemic) | 4.4 | < 1 µM |  |  |  |
| CN(C)Cc1ccc([C@H]2C[C@@H]2C(=O)Nc2nc3ccc(-c4cccnc4)cc3s2)cc1 (racemic) | 2.7 | < 1 µM |  |  |  |
| COc1ccc([C@H]2C[C@@H]2C(=O)Nc2nc3ccc(-c4cn[nH]c4)cc3s2)cc1 | 4.4 | < 1 µM |  |  |  |
| COc1ccc([C@H]2C[C@@H]2C(=O)Nc2nc3ccc(-c4cncc(CO)c4)cc3s2)cc1 (racemic) |  |  | > 20 µM | 0.0053 µM | inhibition [6]: > 50%; inhibition [7]: > 50%; inhibition [8]: > 50% |
| CN(C)Cc1ccc([C@H]2C[C@@H]2C(=O)Nc2nc3ccc(-c4cn[nH]c4)cc3s2)cc1 | 3 | < 1 µM | 0.091 µM | 0.0007 µM | Ki [4]: 0.055 µM; inhibition [9]: > 50%; inhibition [10]: > 50%; AUC(0-t) [11]: 4.8 µM·h; inhibition [12]: > 50%; Vd [13]: 3.2 L/kg; half-life [14]: 3.4 h; bioavailability [15]: 35%; half-life [16]: 3 h; inhibition [17]: > 50%; inhibition [18]: > 50%; inhibition [19]: > 50%; inhibition [20]: > 50%; inhibition [21]: > 50%; AUC(0-t) [22]: 2.8 µM·h; clearance [23]: 12 mL/min/kg |
| COc1ccc([C@H]2C[C@@H]2C(=O)Nc2nc3ccc(OC)cc3s2)cc1 (racemic) |  | 11 µM (≈ 3.9 µg/mL) |  |  |  |
| COc1ccc2nc(NC(=O)[C@H]3C[C@@H]3c3ccccc3)sc2c1 (racemic) |  | < 2 µM |  |  |  |
